Like-named read-outs stand apart in the source and are kept apart here.
Legend:
[1] = test system: CHO-K1 cells; test: Cell viability post-transfection of transfected cell populations under selection conditions; format: cell-based, Chinese hamster; conditions: for concentration at which recovery kinetics were affected: Table 8
Protocol: (§1) To efficiently test the impact of different procedures on improving selection stringency, experimental testing in stable cell populations was performed. As test molecules, enhanced green fluorescent protein (GFP) as well as a human IgG1 were chosen. CHO-K1 cells adapted to growth in suspension in defined medium were obtained from SAFC and cultivated in EX-CELL CD CHO Fusion medium (SAFC 14365C). Custom-made EX-CELL CD CHO Fusion medium without L-Proline (Pro) and without L-Ornithine (Orn) ("proline-free medium") was obtained from SAFC. The expression vector system was based on modified versions of "CET 1019 AS-puro-SceI" and "CET 1019 AD-puro-SceI" for GFP and human IgG1, respectively, from Merck-Millipore, containing the Puromycin selection marker (Puromycin N-acetyl-transferase) known to exert a high selection stringency. To minimize variations in cell populations derived from using different transfections or different vectors, the first series of experiments were conducted using vectors into which a P5CS expression cassette was cloned upstream of a UCOE element, in addition to the Puromycin selection marker present downstream of a gene of interest. This way, it was possible to pool different transfections using the same vector to obtain a common starting point, and split the mixture according to different selection conditions, minimizing any variations that are not due to selection conditions themselves. Expression of long and short isoform of murine P5CS (Protein: Delta-1-pyrroline-5-carboxylate synthase; Gene: Aldh18a1; UniProtKB accession number: Q9Z110-1 & Q9Z110-2) was driven by a SV40 promoter. A SV40 polyadenylation sequence was used at the 3' end of the gene. More details can be found in Table 1. Typically, CHO cells were cultivated in EX-CELL CD CHO Fusion medium containing 6 mM GlutaMAX (Thermo Fisher, 35050-38) ("CD-Fusion medium") at 37 °C with 5% CO2. Cells were grown to logarithmic phase under shaking conditions for transfections. 1e7 cells/cuvette were transfected using nucleofection (Amaxa Nucleofector II, following the manufacturer's recommendations) with 5 µg of linearized DNA. After transfection, cells were taken up in 1 ml medium and transferred into 1 well of a 6 well microtiter plate (MTP) already containing 1 ml medium. The cells were incubated for 24 h without shaking, after which 9 ml medium were added and cells were washed (either in standard or proline-free medium). Multiple transfections were pooled, if applicable. Cells were adjusted to 2e5 viable cells/ml and 10 ml were transferred to T-25 flasks. Reference cell populations were selected using 10 µg/ml Puromycin in CD-Fusion medium. For P5CS-based selection, EX-CELL CD CHO Fusion medium (custom-made, SAFC) containing 6 mM GlutaMAX without proline and without ornithine was used ("proline-free" or "CD-Fusion w/o Pro" medium), with or without additional selection pressure.
(§2) Cell viability of the different populations was monitored over time. As soon as cell populations appeared to recover from selection pressure, cells were transferred to Shake Flask or TubeSpins for expansion in suspension under shaking conditions. Subsequently, stable cell populations transfected with IgG were seeded at 2e5 viable cells/ml for batch fermentation without selection pressure (i.e. standard CD-Fusion medium containing proline and no other selective agents). The cells were cultivated for 5-10 days, viable cell densities and productivity were monitored over time. IgG titers were determined using Poros A-HPLC method. Typically, final batch titers were recorded at a time point at which majority of cultures had around 70% viability. Stable cell populations transfected with GFP vector were subjected to analysis by flow cytometry using Guava easyCyte 8HT Benchtop Flow Cytometer (Millipore). 250 µl of cell culture were transferred to 96 MTP and washed with PBS. Dead cells were excluded from analysis using propidium iodide (PI). […]

[2] = test system: CHO-K1 cells; test: Flow cytometric analysis of GFP expression (MFI, high fluorescing cells) in stably selected cell populations; format: cell-based, Chinese hamster
Protocol: as §1, §2

[3] = test system: CHO-S cells
Protocol: CHO-S cells (Thermo Fisher Scientific, A1155701) were passaged according to the manufacturer's recommendations at 37 °C and 5% CO2 in CD-CHO medium (Thermo Fisher Scientific , 10743029) containing 8 mM GlutaMAX. […] Viable cell densities and viabilities were recorded daily.

[4] = test system: CHO-K1 cells; test: Batch fermentation in shake flasks of human IgG1 expressing stable cell populations (Poros A-HPLC titer, viable cell density, viability); format: cell-based, Chinese hamster; conditions: human IgG1, pJF1577, non-selecting conditions
Protocol: as §1, §2

[5] = Day 1, Proline-free Medium + 0,5mM L-Prolin
[6] = Day 1, Proline-free Medium + 0,25mM L-Prolin
[7] = Day 1, Proline-free Medium + 1,0mM L-Prolin
[8] = Day 1, Proline-free Medium + 2,5mM L-Prolin
[9] = Day 2, Proline-free Medium + 0,5mM L-Prolin
[10] = Day 2, Proline-free Medium + 0,25mM L-Prolin
[11] = Day 2, Proline-free Medium + 1,0mM L-Prolin
[12] = Day 2, Proline-free Medium + 2,5mM L-Prolin
[13] = Day 3, Proline-free Medium + 0,5mM L-Prolin
[14] = Day 3, Proline-free Medium + 0,25mM L-Prolin
[15] = Day 3, Proline-free Medium + 1,0mM L-Prolin
[16] = Day 3, Proline-free Medium + 2,5mM L-Prolin
[17] = Day 6, Proline-free Medium + 0,5mM L-Prolin
[18] = Day 6, Proline-free Medium + 0,25mM L-Prolin
[19] = Day 6, Proline-free Medium + 1,0mM L-Prolin
[20] = Day 6, Proline-free Medium + 2,5mM L-Prolin
[21] = day 20 post-transfection, pJF1556, CD-Fusion w/o Pro + 0.1 mM A2C
[22] = day 20 post-transfection, pJF1556, CD-Fusion w/o Pro + 0.1 mM A2C + 10 µg/ml Puromycin
[23] = day 20 post-transfection, pJF1556, CD-Fusion w/o Pro + 0.25 mM A2C

O=C(O)[C@@H]1C[C@@H](O)CN1 [trans-4-Hydroxy-L-Proline]
Viability on day 12 post-transfection ([1]; pJF1555, CD-Fusion w/o Pro + 5 mM trans-4-Hydroxy-L-Proline): 84% | Viability on day 12 post-transfection ([1]; pJF1555, CD-Fusion w/o Pro + 10 mM trans-4-Hydroxy-L-Proline): 84% | selection pressure ([1]; up to 10 mM, pJF1555, proline-free medium): no increased selection pressure observable | Frequency of high fluorescing cells ([2]; day 15 post-transfection, pJF1555, CD-Fusion w/o Pro + 5 mM trans-4-Hydroxy-L-Proline): 2.6% | Frequency of high fluorescing cells ([2]; day 15 post-transfection, pJF1555, CD-Fusion w/o Pro + 10 mM trans-4-Hydroxy-L-Proline): 2.6%

O=C(O)[C@@H]1CCCN1 [L-Prolin, L-Proline]
Viability [3, 5]: 98,2 | Viable Cell Conc. [3, 5]: 3,7E+05 | Viability [3, 6]: 95,6 | Viable Cell Conc. [3, 6]: 3,5E+05 | Viability [3, 7]: 100,0 | Viable Cell Conc. [3, 7]: 3,6E+05 | Viability [3, 8]: 99,3 | Viable Cell Conc. [3, 8]: 3,3E+05 | Viability [3, 9]: 99,7 | Viable Cell Conc. [3, 9]: 6,3E+05 | Viability [3, 10]: 98,1 | Viable Cell Conc. [3, 10]: 5,7E+05 | Viability [3, 11]: 99,7 | Viable Cell Conc. [3, 11]: 5,6E+05 | Viability [3, 12]: 97,5 | Viable Cell Conc. [3, 12]: 4,9E+05 | Viability [3, 13]: 99,5 | Viable Cell Conc. [3, 13]: 1,2E+06 | Viability [3, 14]: 99,6 | Viable Cell Conc. [3, 14]: 9,1E+05 | Viability [3, 15]: 99,2 | Viable Cell Conc. [3, 15]: 1,1E+06 | Viability [3, 16]: 99,8 | Viable Cell Conc. [3, 16]: 1,1E+06 | Viability [3, 17]: 99,9 | Viable Cell Conc. [3, 17]: 3,8E+06 | Viability [3, 18]: 98,2 | Viable Cell Conc. [3, 18]: 1,3E+06 | Viability [3, 19]: 99,5 | Viable Cell Conc. [3, 19]: 6,6E+06 | Viability [3, 20]: 99,7 | Viable Cell Conc. [3, 20]: 6,3E+06

O=C(O)[C@@H]1C[C@H](O)CN1 [cis-4-Hydroxy-L-Proline]
Viability on day 12 post-transfection ([1]; pJF1555, CD-Fusion w/o Pro + 0.25 mM cis-4-Hydroxy-L-Proline): 89% | Viability on day 12 post-transfection ([1]; pJF1555, CD-Fusion w/o Pro + 0.5 mM cis-4-Hydroxy-L-Proline): 88% | Viability on day 12 post-transfection ([1]; pJF1555, CD-Fusion w/o Pro + 1 mM cis-4-Hydroxy-L-Proline): 65% | Viability on day 12 post-transfection ([1]; pJF1555, CD-Fusion w/o Pro + 2.5 mM cis-4-Hydroxy-L-Proline): 13% | Viability on day 12 post-transfection ([1]; pJF1555, CD-Fusion w/o Pro + 5 mM cis-4-Hydroxy-L-Proline): 13% | Viability on day 12 post-transfection ([1]; pJF1555, CD-Fusion w/o Pro + 10 mM cis-4-Hydroxy-L-Proline): 20% | concentration at which recovery kinetics were affected ([1]; pJF1555, proline-free medium): ≥ 1 mM | Frequency of high fluorescing cells ([2]; day 15 post-transfection, pJF1555, CD-Fusion w/o Pro + 0.25 mM cis-4-Hydroxy-L-Proline): 3.3% | Frequency of high fluorescing cells ([2]; day 15 post-transfection, pJF1555, CD-Fusion w/o Pro + 0.5 mM cis-4-Hydroxy-L-Proline): 1.7% | Frequency of high fluorescing cells ([2]; day 15 post-transfection, pJF1555, CD-Fusion w/o Pro + 2.5 mM cis-4-Hydroxy-L-Proline): 1.4% | Frequency of high fluorescing cells ([2]; day 15 post-transfection, pJF1555, CD-Fusion w/o Pro + 5 mM cis-4-Hydroxy-L-Proline): 0.0% | Frequency of high fluorescing cells ([2]; day 15 post-transfection, pJF1555, CD-Fusion w/o Pro + 10 mM cis-4-Hydroxy-L-Proline): 0.0%

O=C(O)[C@@H]1CCN1 [A2C, L-Azetidine-2-carboxylic acid]
Viability on day 13 post-transfection ([1]; MOCK, CD-Fusion w/o Pro + 0.5 mM A2C + 10 µg/ml Puromycin): 15% | Viability on day 13 post-transfection ([1]; pJF1556, CD-Fusion w/o Pro + 0.1 mM A2C): 85% | Viability on day 13 post-transfection ([1]; pJF1556, CD-Fusion w/o Pro + 0.1 mM A2C + 10 µg/ml Puromycin): 62% | Viability on day 13 post-transfection ([1]; pJF1556, CD-Fusion w/o Pro + 0.25 mM A2C): 70% | Viability on day 13 post-transfection ([1]; pJF1556, CD-Fusion w/o Pro + 0.25 mM A2C + 10 µg/ml Puromycin): 22% | Viability on day 13 post-transfection ([1]; pJF1556, CD-Fusion w/o Pro + 0.5 mM A2C): 21% | Viability on day 13 post-transfection ([1]; pJF1556, CD-Fusion w/o Pro + 0.5 mM A2C + 10 µg/ml Puromycin): 21% | Frequency of high fluorescing cells [2, 21]: 7.1% | Median Fluorescence Intensity (MFI) (yellow) [2, 21]: 5743 | Frequency of high fluorescing cells [2, 22]: 13.6% | Median Fluorescence Intensity (MFI) (yellow) [2, 22]: 9448 | Frequency of high fluorescing cells [2, 23]: 7.1% | Median Fluorescence Intensity (MFI) (yellow) [2, 23]: 7578 | Batch titer day 7 ([4]; selected in CD-Fusion w/o Pro + 0.1 mM A2C + 10 µg/ml Puromycin): 82 mg/L | Batch titer day 7 ([4]; selected in CD-Fusion w/o Pro + 0.1 mM A2C): 135 mg/L | Batch titer day 7 ([4]; selected in CD-Fusion w/o Pro + 0.25 mM A2C + 10 µg/ml Puromycin): 145 mg/L | Batch titer day 7 ([4]; selected in CD-Fusion w/o Pro + 0.25 mM A2C): 166 mg/L | Batch titer day 7 ([4]; selected in CD-Fusion w/o Pro + 0.5 mM A2C + 10 µg/ml Puromycin): 34 mg/L | Batch titer day 7 ([4]; selected in CD-Fusion w/o Pro + 0.5 mM A2C): 166 mg/L

O=C(O)C1NCCS1 (stereo not shown) [Thiazolidine-2-carboxylic acid]
Viability on day 12 post-transfection ([1]; pJF1555, CD-Fusion w/o Pro + 0.1 mM Thiazolidine-2-carboxylic acid): 87% | Viability on day 12 post-transfection ([1]; pJF1555, CD-Fusion w/o Pro + 0.5 mM Thiazolidine-2-carboxylic acid): 78% | Viability on day 12 post-transfection ([1]; pJF1555, CD-Fusion w/o Pro + 1 mM Thiazolidine-2-carboxylic acid): 11% | Viability on day 12 post-transfection ([1]; pJF1555, CD-Fusion w/o Pro + 2.5 mM Thiazolidine-2-carboxylic acid): 15% | Viability on day 12 post-transfection ([1]; pJF1555, CD-Fusion w/o Pro + 10 mM Thiazolidine-2-carboxylic acid): 16% | concentration at which recovery kinetics were affected ([1]; pJF1555, proline-free medium): 0.5 to 1 mM | Frequency of high fluorescing cells ([2]; day 15 post-transfection, pJF1555, CD-Fusion w/o Pro + 0.1 mM Thiazolidine-2-carboxylic acid): 4.9% | Frequency of high fluorescing cells ([2]; day 15 post-transfection, pJF1555, CD-Fusion w/o Pro + 0.5 mM Thiazolidine-2-carboxylic acid): 2.3% | Frequency of high fluorescing cells ([2]; day 15 post-transfection, pJF1555, CD-Fusion w/o Pro + 1 mM Thiazolidine-2-carboxylic acid): 0.0% | Frequency of high fluorescing cells ([2]; day 15 post-transfection, pJF1555, CD-Fusion w/o Pro + 2.5 mM Thiazolidine-2-carboxylic acid): 0.0% | Frequency of high fluorescing cells ([2]; day 15 post-transfection, pJF1555, CD-Fusion w/o Pro + 10 mM Thiazolidine-2-carboxylic acid): 0.0%

Reference: patent EP3521435A1, “A HIGH STRINGENCY SELECTION SYSTEM FOR PROTEIN EXPRESSION IN PROLINE-AUXOTROPHIC CELLS” (Bayer AG, priority 2018, dated 2019)
